Test results as given in publication PMC11251182, “Tubular insulin-induced gene 1 deficiency promotes NAD^+ consumption and exacerbates kidney fibrosis” (EMBO Molecular Medicine, 2024).

Molecular target: T1, human recombinant Aldh1a1 (hAldh1a1) (Homo sapiens, UniProt P00352)
T1 construct: recombinant human Aldh1a1 protein (Novoprotein, CF44)
T1 sequence (P00352 2-501): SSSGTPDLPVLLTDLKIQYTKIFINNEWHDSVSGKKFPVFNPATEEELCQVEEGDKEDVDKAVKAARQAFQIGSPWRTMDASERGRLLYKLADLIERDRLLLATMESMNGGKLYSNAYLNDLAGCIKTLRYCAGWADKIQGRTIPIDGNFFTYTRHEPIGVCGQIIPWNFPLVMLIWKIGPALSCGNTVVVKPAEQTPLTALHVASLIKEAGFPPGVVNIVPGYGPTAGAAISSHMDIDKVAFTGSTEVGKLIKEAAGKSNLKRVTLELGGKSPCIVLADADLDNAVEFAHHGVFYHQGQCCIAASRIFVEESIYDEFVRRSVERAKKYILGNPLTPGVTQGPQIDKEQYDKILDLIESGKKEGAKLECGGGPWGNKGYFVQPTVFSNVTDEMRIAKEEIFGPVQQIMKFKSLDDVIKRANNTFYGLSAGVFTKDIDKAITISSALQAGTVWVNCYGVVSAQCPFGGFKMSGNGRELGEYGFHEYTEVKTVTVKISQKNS
Experiment: SPR (Biacore T200, CM5 chip, amine coupling); also inhibited the recombinant enzyme's activity at […]
Assay type: binding

`COC(=O)C1=C(C)NC(C)=C(C(=O)OCCN(C)Cc2ccccc2)C1c1cccc([N+](=O)[O-])c1` (stereo not shown) [13-F9, nicardipine] was tested, and the Kd was 1980 nM.
